Test results from patent US20060116335A1, “Ready-for-complexation composition” (Lytone Enterprise, Inc., priority 2004, published 2006).
Converted amounts (≈) assume the structure as drawn.

Columns and labels:
[1] = Natamycin solubility of the RFC composition in water by UV spectrophotometer at 332.6 nm; assay type: physicochemical; conditions: 25° C.
Procedure: The RFC compositions were prepared by mixing commercial natamycin (87%) withβ-CD(98%) in different molar ratios. A comparison on the solubility of natamycin was made for the RFC compositions. The solubility of natamycin in water is determined by UV Spectrophotometer at 332.6 nm.

[2] = cited from earlier work
[3] = test system: Aspergillus niger (CRCC 30506); assay: Antimycotic activity (MIC) on MRS agar plates inoculated with Aspergillus niger spores; assay type: cell-based; conditions: 168 h, 7 days at 24° C.
Procedure: The freshly prepared spore suspension (c.a. 10^6/ml)of Aspergillus niger (CRCC 30506) was inoculated on MRS agar plates containing different concentrations of natamycin. The diameter of the colonies of Aspergillus niger was measured after being incubated for 7days at 24° C. […] The results of Table 2 also indicate that the RFC mixture show higher antimycotic activity than conventional natamycin because of the improved solubility.

Row | Solubility of natamycin [1] | MIC [3] | Structure (SMILES) | solubility in water [2]
1 | 45 ppm |  | C[C@@H]1C/C=C/C=C/C=C/C=C/[C@H](O[C@@H]2O[C@H](C)[C@@H](O)[C@H](N)[C@@H]2O)C[C@@H]2O[C@](O)(C[C@@H](O)C[C@H]3O[C@@H]3/C=C/C(=O)O1)C[C@H](O)[C@H]2C(=O)O [natamycin] | 0.005-0.010 weight/weigh
2 |  | 1.25 to 1.5 mg/L (≈ 1.88 to 2.25 µM) | C[C@@H]1C/C=C/C=C/C=C/C=C/[C@H](O[C@@H]2O[C@H](C)[C@@H](O)[C@H](N)[C@@H]2O)C[C@@H]2O[C@](O)(C[C@@H](O)C[C@H]3O[C@@H]3/C=C/C(=O)O1)C[C@H](O)[C@H]2C(=O)O [Commercial natamycin (50%), natamycin] | 
